The values below come from patent US8557800B2, “Sphingosine kinase inhibitors” (Apogee Biotechnology Corporation, priority 2005, dated 2013).

Test [1] has as its system MCF-7 human breast adenocarcinoma cells. Put plainly: Cytotoxicity, SRB binding assay. The conditions noted are these: MCF7, inhibition of cell proliferation, 48 h, read-out: MCF-7 IC50. The test is classed as cell-based. In a few lines: (§1)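 Cells exposed to varying compound doses for 48 h, then survival measured by sulforhodamine B staining. IC50 is the concentration giving 50% proliferation inhibition, in μM, as mean±sd of replicate trials.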
A general note: The SRB assay estimates cell density from bound dye.

In test [2] the test system is MCF-10A non-transformed human breast epithelial cells. Kind of test: Cytotoxicity, SRB binding assay. It is filed as cell-based. The following applies: inhibition of cell proliferation, 48 h, read-out: MCF-10A IC50. In a few lines: as §1
A further test deals with recombinant human SK. Put plainly: Inhibition of recombinant human SK, LC/MS/MS assay. It is filed as biochemical. The conditions noted are these: 6 μg/ml compound. In a few lines: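 Enzyme incubated with unlabeled sphingosine and ATP (1 mM, as in the radiometric format) for 30 min, then stopped and extracted with acetonitrile. S1P quantified by C8 reverse-phase HPLC–MS/MS against C17 sphingosine and C17 S1P internal standards using calibration curves.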

SMILES strings stand for the structures.

Turning to `O=C(Nc1ccc(O)cc1)C12CC3CC(C1)CC(c1ccc(Cl)cc1)(C3)C2` [Compound 6, 3-(4-Chloro-phenyl)-adamantane-1-carboxylic acid (4-hydroxy-phenyl)-amide], the IC50 (commonly the concentration that gives 50% inhibition) in test [1] came out at 5 µM; in test [2], 15 µM. In the test on recombinant human SK, the “Recombinant SK (% inhibition)” value was 72%.
In the same order, the values of `O=C(Nc1nc(-c2ccc(Cl)cc2)cs1)C12CC3CC(CC(C3)C1)C2` [Compound 69, Adamantane-1-carboxylic acid [4-(4-chloro-phenyl)-thiazol-2-yl]-amide] are 30 µM, 106 µM and 40%.
For the compound `CC(C)NC(=O)C12CC3CC(C1)CC(c1ccc(Cl)cc1)(C3)C2` [Compound 1, 3-(4-Chloro-phenyl)-adamantane-1-carboxylic acid isopropylamide], the figures for the IC50 in test [1] and in test [2] were 23 µM and 151 µM, respectively. For the same compound, in the test with recombinant human SK, the “Recombinant SK (% inhibition)” value is on record as 38%.
For `O=C(NCc1ccccc1)C12CC3CC(C1)CC(c1ccc(Cl)cc1)(C3)C2` [Compound 12, 3-(4-Chloro-phenyl)-adamantane-1-carboxylic acid benzylamide] the same measures were 11 µM, 99 µM and 36%.
Regarding `O=C(Nc1ccc(O)cc1)C12CC3CC(CC(C3)C1)C2` [Compound 5, Adamantane-1-carboxylic acid (4-hydroxy-phenyl)-amide], in test [2], the IC50 is 30 µM. For the same compound, in the test on recombinant human SK, the “Recombinant SK (% inhibition)” value is 100%.
As to `CCn1c2ccccc2c2cc(NC(C)C34CC5CC(CC(c6ccc(Cl)cc6)(C5)C3)C4)ccc21` (stereo not drawn) [Compound 114, {1-[3-(4-Chloro-phenyl)-adamantan-1-yl]-ethyl}-(9-ethyl-9H-carbazol-3-yl)-amine], the results for the IC50 in test [1] and in test [2] were 55 µM and 9 µM, respectively. Moreover, the “Recombinant SK (% inhibition)” value in the test with recombinant human SK was determined as 33%.
Consider `N#CCc1ccc(NC(=O)C23CC4CC(CC(C4)C2)C3)cc1` [Compound 10, Adamantane-1-carboxylic acid (4-cyanomethyl-phenyl)-amide], for which the IC50 in test [2] was determined as 170 µM. Moreover, the “Recombinant SK (% inhibition)” value in the test on recombinant human SK came out at 3%.
As to `O=C(Nc1ccc(O)cc1O)C12CC3CC(C1)CC(c1ccc(Cl)cc1)(C3)C2` [Compound 8, 3-(4-Chloro-phenyl)-adamantane-1-carboxylic acid (2,4-dihydroxy-phenyl)-amide], the IC50 in test [1] was determined as 47 µM; in test [2] it was 94 µM. Besides, the “Recombinant SK (% inhibition)” value with recombinant human SK turned out to be 49%.
For the compound `O=C(Nc1nc2cc(Cl)ccc2o1)C12CC3CC(C1)CC(c1ccc(Cl)cc1)(C3)C2` [Compound 72, 3-(4-Chloro-phenyl)-adamantane-1-carboxylic acid (5-chloro-benzooxazol-2-yl)-amide], the IC50 in test [1] is 2 µM; in test [2] it was 6 µM. Further, in the test with recombinant human SK, the “Recombinant SK (% inhibition)” value was found to be 14%.
In the same order, the values of `O=C(NCCc1ccncc1)C12CC3CC(C1)CC(c1ccc(Cl)cc1)(C3)C2` [Compound 64, 3-(4-Chloro-phenyl)-adamantane-1-carboxylic acid (2-pyridin-4-yl-ethyl)-amide] are 8 µM, 20 µM and 41%.
Take `CN1CCN(NC(=O)C23CC4CC(C2)CC(c2ccc(Cl)cc2)(C4)C3)CC1` [Compound 52, 3-(4-Chloro-phenyl)-adamantane-1-carboxylic acid (4-methyl-piperazin-1-yl)-amide]: the IC50 in test [1] is 10 µM; in test [2], 15 µM. Also, the “Recombinant SK (% inhibition)” value in the test with recombinant human SK was determined as 54%.
In the same order, the values of `O=C(Nc1nc2ccccc2s1)C12CC3CC(C1)CC(c1ccc(Cl)cc1)(C3)C2` [Compound 71, 3-(4-Chloro-phenyl)-adamantane-1-carboxylic acid benzothiazol-2-ylamide] are 21 µM, 118 µM and 27%.
Take `Clc1ccc(-c2cnc(NCC34CC5CC(C3)CC(c3ccc(Cl)cc3)(C5)C4)s2)cc1` [Compound 90, [3-(4-Chloro-phenyl)-adamantan-1-ylmethyl]-[5-(4-chloro-phenyl)-thiazol-2-yl]-amine]: the IC50 in test [1] worked out at 96 µM; in test [2], 107 µM. Also, the “Recombinant SK (% inhibition)” value in the test on recombinant human SK stood at 26%.
For `COC(=O)C(C(=O)OC)C(=O)C12CC3CC(CC(C3)C1)C2` [Compound 128, 2-(Adamantane-1-carbonyl)-malonic acid dimethyl ester], the IC50 in test [1] stood at 34 µM; in test [2] it was 63 µM.
On to `O=C(Nc1ccccc1)C12CC3CC(C1)CC(c1ccc(Cl)cc1)(C3)C2` [Compound 4, 3-(4-Chloro-phenyl)-adamantane-1-carboxylic acid phenylamide], for which the values for the concentration for half-maximal inhibition (IC50) in test [1] and in test [2] were 72 µM and 137 µM, respectively. Moreover, in the test on recombinant human SK, the “Recombinant SK (% inhibition)” value is 44%.
In the same order, the values of `Clc1ccc(C23CC4CC(CC(CNCCN5CCOCC5)(C4)C2)C3)cc1` [Compound 87, [3-(4-Chloro-phenyl)-adamantan-1-ylmethyl]-(2-morpholin-4-yl-ethyl)-amine] are 38 µM, 33 µM and 75%.
Regarding `CC(=O)C12CC3CC(C1)CC(c1ccc(F)cc1)(C3)C2` [Compound 126, 1-[3-(4-Fluoro-phenyl)-adamantan-1-yl]-ethanone], the IC50 in test [1] was determined as 2 µM; in test [2], 6 µM.
Consider `O=C(Nc1nc(-c2ccc(Cl)cc2)cs1)C12CC3CC(C1)CC(c1ccc(Cl)cc1)(C3)C2` [Compound 70, 3-(4-Chloro-phenyl)-adamantane-1-carboxylic acid [4-(4-chloro-phenyl)-thiazol-2-yl]-amide], for which the IC50 is 7 µM in test [1] and 103 µM in test [2]. Further, the “Recombinant SK (% inhibition)” value with recombinant human SK is 33%.
For `CCn1c2ccccc2c2cc(NC(=O)C34CC5CC(C3)CC(c3ccc(Cl)cc3)(C5)C4)ccc21` [Compound 68, 3-(4-Chloro-phenyl)-adamantane-1-carboxylic acid (9-ethyl-9H-carbazol-3-yl)-amide] the same measures were 54 µM, 104 µM and 17%.
In the case of `O=C(O)C12CC3CC(C1)CC(c1ccc(Cl)cc1)(C3)C2` [Compound 123, 3-(4-Chloro-phenyl)-adamantane-1-carboxylic acid], the IC50 came out at 48 µM in test [1] and 95 µM in test [2].
For `O=C(O)C12CC3CC(C1)CC(c1ccc(F)cc1)(C3)C2` [Compound 122, 3-(4-Fluoro-phenyl)-adamantane-1-carboxylic acid] the same measures were 155 µM and 182 µM.
In the same order, the values of `CC(NC1CCN(C)CC1)C12CC3CC(CC(c4ccc(F)cc4)(C3)C1)C2` (stereo not drawn) [Compound 106, {1-[3-(4-Fluoro-phenyl)-adamantan-1-yl]-ethyl}-(1-methyl-piperidin-4-yl)-amine] are 2 µM and 6 µM.
For `CC(=O)C12CC3CC(C1)CC(c1ccccc1)(C3)C2` [Compound 125, 1-(3-Phenyl-adamantan-1-yl)-ethanone] the same measures were 8 µM and 59 µM.
With `CC(N)C12CC3CC(CC(c4ccc(Cl)cc4)(C3)C1)C2` (stereo not drawn) [Compound 91, 1-[3-(4-Chloro-phenyl)-adamantan-1-yl]-ethylamine], the IC50 is 5 µM in test [1] and 4 µM in test [2].
